Data on one molecule can be found in patent US20180369186A1, “METHOD FOR MODULATING AUTOPHAGY AND APPLICATIONS THEREOF” (JAWAHARLAL NEHRU CENTRE FOR ADVANCED SCIENTIFIC RESEARCH, priority 2015, published 2018).

Assay [1] concerns mcherry-Salmonella typhimurium SL1344. The assay can be described thus: Live cell microscopy of Salmonella replication in HeLa cells. As to conditions: GFP-LC3 transfected HeLa; vs untreated samples. It is filed as cell-based. Here is the method: GFP-LC3 transfected HeLa cells is infected with mcherry-Salmonella typhimurium SL1344 for 15 minutes (MOI-400) and is treated with gentamycin for 10 minutes. The cells are then washed with 1× PBS and changed to either only media (a) and media containing Acacetin (b) and imaged by FV10i-olympus confocal live cell imaging microscope, using 60× water immersion lens, with confocality aperature set to 1.0. Images are taken at an interval of 15 minutes. (c) The intensity of the Red channel denoting the mcherry tagged S. typhimuriumis measured using image J—Stacks T function (intensity of red channel signifies the replication of the S. typhimurium over time). The replication of Salmonella in Acacetin treated samples is restricted as compared to that of untreated samples (FIG. 15)

For assay [2], the system named is mcherry Salmonella typhimurium. The assay can be described thus: Co-localization of GFP-LC3 / p62 with mcherry Salmonella in HeLa cells. The assay is classed as cell-based, human. Here is the method: HeLa cells are transfected with GFP-LC3 using lipofectamine 3000. After 24 hours, cells are infected with Salmonella typhimurium WT strain SL1344 with an MOI of 400 for 15 minutes followed by gentamycin treatment at the concentration of 100 μg/ml for 10 minutes to kill the extracellular bacteria.
The cells are treated with and without Acacetin and incubated for different time points (1, 2, 4 and 6 hours) at 37° C. Quantitation of LC3 co-localization with Salmonella typhimurium SL1344 is done using ImageJ-Cell counter option (FIG. 14), to check whether with compound (Acacetin) treatment more autophagy machinery is recruited towards the bacteria.

The subject of assay [3] is Pot1-GFP (peroxisomes). The assay can be described thus: Pot1-GFP pexophagy assay. The assay is classed as cell-based, S. cerevisiae. As to conditions: starvation medium; vs untreated cells. The protocol: Pot1-GFP positive strains are allowed to grow till the A600 reached 0.8-1 in YPD. Peroxisome biogenesis is induced by growing these cells in oleate medium (0.1% oleate, 0.5% Tween-40, 0.25% yeast extract, 0.5% peptone, and 5 mM phosphate buffer) for 12hours. Cells are harvested, washed twice to remove traces of oleate and transferred to starvation medium without nitrogen, at inoculum density A600 3, to induce pexophagy. Cells are collected at various time intervals after pexophagy induction and processed by TCA method.
Pot1-GFP positive strains are allowed to grow in yeast extract peptone dextrose (YPD) (2% dextrose, 2% peptone and 1% yeast extract) till the Absorbance at 600 nm reaches 0.6-0.8. Peroxisome biogenesis is induced by growing these cells in YPG medium (1% yeast extract, 2% peptone, 3% glycerol) for 12 hours.
Cells are harvested, washed twice to remove traces of oleate and transferred to starvation medium with and without Acacetin, at. inoculum density Absorbance at 600 nm 3/ml, to induce pexophagy. Cells are collected at various time intervals after pexophagy induction and processed by TCA precipitation.

For assay [4], the system named is Salmonella typhimurium SL1344. As to the kind of experiment: Burden assay: intracellular Salmonella CFU in U1752 and HeLa cells. The assay is classed as cell-based. Here is the method: U1752 cell line and HeLa cell line are infected with Salmonella typhimurium SL1344, and grown overnight in micro-aerophilic condition, at an MOI of 400 for one hour. The cells are treated with media containing Gentamycin at the concentration of 100 μg/ml for 2 hours to kill the extracellular bacteria. The cells are then treated with compounds and incubated for ?hours to 4 hours. At the end, the cells are lysed using lysis buffer (0.1% SDS, 1% Triton X-100, 1× PBS) and the intercellular Salmonella is plated and the CFU is counted. The CFU of Salmonella in the Acacetin treated cells is reduced by almost 2 fold compared to that of the untreated cells. Statistical analysis of the results is done using Graphpad prism—two tailed T test (FIG. 12)

In assay [5] the test system is HeLa cells (autophagosomes and autolysosomes). As to the kind of experiment: Tandem RFP-GFP-LC3B (traffic light) assay in HeLa cells. It is filed as cell-based, human. Conditions: ptf-LC3 transfected HeLa; 2 hours. The protocol:
Transfection is done on a 60 mm dish with HeLa cells at 60-70% confluency. Cells were transfected with tandem RFP-GFP-MAP1LC3B construct (Addgene plasmid #21074) using 5 μl of Lipofectamine 2000 (11668-019, Invitrogen) and 2.5 μg of DNA (2:1 ratio) diluted in 100 μl of OPTI-MEM (31985-070, Invitrogen) separately. 72 hours after transfection cells are either left untreated or treatment with various concentrations of Bay11-7082 ZPCK is done for 2 hours. Starvation is induced by treating cells with Earle's balanced salt solution (EBBS). After treatment, cells are fixed in 4% paraformaldehyde and permeabilized using 0.25% Triton X-100, The coverslip is mounted with […] antifade reagent (H-1000, Vector laboratories). Imaging for HeLa cells is carried out using Delta vision microscope (Olympus 60×/1.4, Plan ApoN, excitation and emission filter Cy5, FITC and TRITC, polychroic Quad).
For tandem RFP-EGFP-LC3 assay, sub-confluent cells are seeded in 60 mm dishes, transfected with ptf LC3 construct and allowed to express for 24 h. Later, cells are trypsinized, reseeded (10^5 cells) and allowed to attach on cover slips in a 12 well plate.
For mammalian cell microscopy, after 2 h of treatment, coverslips are fixed using 4% paraformaldehyde (PFA) (Sigma) and permeabilized using Triton X-100 (0.2%, HiMedia). Coverslips are mounted using antifade, Vectashield (Vector laboratories). For antibody staining, coverslips are blocked in 5% BSA for 1 h, incubated in primary antibody overnight and subsequent probing with fluorescent conjugated antibody. Coverslips are mounted using antifade, Vectashield (Vector laboratories).
Images are acquired using DeltaVisionElitewidefield microscope (API, GE) with following filters: DAPI (390/18 and 435/48), FITC (490/20 and 529/38), TRITC (542/27 and 594/45) and Cy5 (632/22 and 676/34). Images are processed using DV SoftWoRX software. Autophagosome (yellow) and autolysosome (red) are counted using Cell Counter plug-in in ImageJ software (NIH) and graphically represented as fold difference versus untreated (FIG. 3E).
Sub-confluent HeLa and/or SH-SY5Y cells are seeded into 60 mm cell culture dishes, then transfected with ptf LC3 construct and/or siRNA and allowed to express for 48 h. Cells are trypsinized, seeded again on poly-D-lysine coated cover slips in a 12 or 24 well plates and allowed to attach. After appropriate treatments, the coverslips containing cells are processed for imaging. For immunofluorescent antibody staining, the cover slips are incubated in primary antibody at 4° C. for overnight followed by secondary antibody incubation at room temperature.
For imaging the mammalian cells, after appropriate treatments, coverslips containing cells are fixed using 4% paraformaldehyde (PFA) (Sigma) and then permeabilized using Triton X-100 (0.2%, HiMedia). On slide, coverslips are mounted using antifade, Vectashield mounting medium (Vector laboratories). For antibody staining, coverslips are blocked using 5% BSA for 1 h at room temperature, then incubated with primary antibody at 4° C., overnight and then subsequently probed with corresponding fluorescent dye conjugated secondary antibody.

Assay [6] concerns Salmonella typhimurium SL1344. As to the kind of experiment: Growth curve of Salmonella typhimurium SL1344. It is filed as cell-based. Conditions: Luria Broth, 10 hours. The protocol: A single colony of Salmonella typhimurium WT strain SL1344 grown overnight at 37° C. is diluted in Luria Broth media to get an O.D of 0.2. The diluted culture is used for treatments with Acacetin and Acacetin with gentamycin (100 μg/ml). The growth curve of the culture is obtained by measuring the absorbance at 600 nm using varioskan Flash Multiplate Spectrophotometer at 300 rpm and O.D taken at every 30 minutes interval for 10 hours is plotted using GraphPad Prism.

With `COc1ccc(-c2cc(=O)c3c(O)cc(O)cc3o2)cc1` [Acacetin, 5,7-dihydroxy-2-(4-methoxyphenyl)chromen-4-one], the “replication of Salmonella (red channel intensity)” value in assay [1] is recorded as “restricted”. For the same molecule, in assay [2], the “temporal recruitment of LC3 to mcherry Salmonella typhimurium” value is on record as “increases temporal recruitment of LC3” and the “temporal recruitment of p62 to mcherry Salmonella typhimurium” value is “increased temporal recruitment of p62”. In addition, in assay [3], the “accumulation of free GFP over time (pexophagy)” value is “enhanced accumulation of free GFP”. Besides, the “functionality in Atg5 KO HeLa cell line” value in assay [4] (Atg5 KO HeLa) is reported as “non-functionality”. In assay [4] (U1752 and HeLa cell lines, MOI 400), the “reduction of CFU of intracellular Salmonella vs untreated” value was roughly 2 fold. In assay [5], the “number of autolysosomes (red dots)” value is on record as “increase in the number of autolysosomes”. The “anti-microbial activity against Salmonella typhimurium SL1344” value in assay [6] is given as “does not have any anti-microbial activity”.
